# ChEMBL document CHEMBL5030558, “Optimization and Evaluation of Novel Antifungal Agents for the Treatment of Fungal Infection” (J Med Chem, 2021)
# Calls of active or inactive are those of the source. The rule behind the calls is not given here.
# Columns and labels:
# Trichophyton rubrum [1] = experiment: Fungicidal activity against Trichophyton rubrum KCCM60450 at 8 times after 24 hrs by time-kill kinetics assay; type: functional, organism-based
# [2] = system: Trichophyton mentagrophytes; experiment: Fungicidal activity against Trichophyton mentagrophytes KCCM60449 at 8 times after 24 hrs by time-kill kinetics assay; type: functional, organism-based
# Cryptococcus neoformans [3] = experiment: Antifungal activity against Cryptococcus neoformans H99 assessed as reduction in fungal growth incubated for 72 hrs by CLSI based broth microdilution method; type: functional
# Candida albicans [4] = experiment: Antifungal activity against Candida albicans ATCC SC5314 assessed as reduction in fungal growth incubated for 48 hrs by CLSI based broth microdilution method; type: functional
# Nakaseomyces glabratus [5] = experiment: Antifungal activity against Candida glabrata BG2 assessed as reduction in fungal growth incubated for 48 hrs by CLSI based broth microdilution method; type: functional
# Aspergillus fumigatus = experiment: Antifungal activity against Aspergillus fumigatus AF293 assessed as reduction in fungal growth incubated for 48 hrs by CLSI based broth microdilution method; type: functional
# [6] = Stability in human liver microsomes assessed as parent compound remaining after 30 mins; type: ADME, Microsome; conditions: read-out: Stability
# [7] = Stability in rat liver microsomes assessed as parent compound remaining after 30 mins; type: ADME, Microsome; conditions: microsomes, 0.5 h
# [8] = Stability in mouse liver microsomes assessed as parent compound remaining after 30 mins; type: ADME, Microsome; conditions: microsomes, 0.5 h
# CYP3A4 = CYP3A4 (Homo sapiens, UniProt P08684); experiment: Inhibition of CYP3A4 (unknown origin) at 10 uM relative to control; type: ADME
# CYP2C19 = CYP2C19 (Homo sapiens, UniProt P33261); experiment: Inhibition of CYP2C19 (unknown origin) at 10 uM relative to control; type: ADME
# CYP2D6 = CYP2D6 (Homo sapiens, UniProt P10635); experiment: Inhibition of CYP2D6 (unknown origin) at 10 uM relative to control; type: ADME
# Cytochrome P450 2C9 = Cytochrome P450 2C9 (Homo sapiens, UniProt P11712); experiment: Inhibition of CYP2C9 (unknown origin) relative to control; type: ADME
# Cytochrome P450 3A4 = Cytochrome P450 3A4 (Homo sapiens, UniProt P08684); experiment: Inhibition of CYP3A4 (unknown origin) relative to control; type: ADME
# Cytochrome P450 2D6 = Cytochrome P450 2D6 (Homo sapiens, UniProt P10635); experiment: Inhibition of CYP2D6 (unknown origin); type: ADME
# [9] = Stability in human plasma assessed as parent compound remaining after 30 to 120 mins; type: ADME, cell-free; conditions: time 30-120 min
# [10] = Stability in rat plasma assessed as parent compound remaining after 30 to 120 mins; type: ADME, cell-free; conditions: time 30-120 min
# Cryptococcus neoformans [11] = experiment: Fungicidal activity against Cryptococcus neoformans H99 at 8 times of MIC after 12 hrs by time-kill kinetics assay; type: functional, organism-based
# Trichophyton rubrum [12] = experiment: Ex vivo antifungal activity against Trichophyton rubrum KCCM60450 infected in human nail assessed as reduction in ATP level at 10 % w/w after 24 hrs; type: functional; set-up: scale not given: the % may be the effect or the level left
# Cryptococcus neoformans [13] = experiment: Fungicidal activity against Cryptococcus neoformans H99 at 8 times of MIC after 24 hrs by time-kill kinetics assay; type: functional, organism-based
# Candida albicans [14] = experiment: Induction of drug resistance in Candida albicans ATCC SC5314 assessed as increase in EZC IC50 at 8 time IC50 after 7 days; type: functional, organism-based; conditions: time 7.0 day
# Nakaseomyces glabratus [15] = experiment: Induction of drug resistance in Candida glabrata BG2 assessed as increase in ECZ IC50 at 8 times IC50 after 4 days; type: functional, organism-based; conditions: BG2, 96 h
# Candida albicans [16] = experiment: Induction of drug resistance in Candida albicans ATCC SC5314 assessed as increase in EZC IC50 at 8 time IC50 after 35 days; type: functional, organism-based; conditions: time 35.0 day
# Candida albicans [17] = experiment: Induction of drug resistant in Candida albicans ATCC SC5314 assessed as increase in EZC IC50 at 16 times IC50; type: functional, organism-based
# Nakaseomyces glabratus [18] = experiment: Induction of drug resistant in Candida glabrata BG2 assessed as increase in EZC IC50 at 16 times IC50; type: functional, organism-based
# Candida albicans [19] = experiment: Induction of drug resistance in Candida albicans ATCC SC5314 assessed as increase in FCZ IC50 at 8 times IC50 measured after 5 to 22 days; type: functional, organism-based
# Nakaseomyces glabratus [20] = experiment: Induction of drug resistance in Candida glabrata BG2 assessed as increase in FCZ IC50 at 8 times IC50 after 23 days; type: functional, organism-based; conditions: BG2, 552 h
# Candida albicans [21] = experiment: Induction of drug resistant in Candida albicans ATCC SC5314 assessed as increase in FCZ IC50 at 16 times IC50; type: functional, organism-based
# Nakaseomyces glabratus [22] = experiment: Induction of drug resistant in Candida glabrata BG2 assessed as increase in FCZ IC50 at 16 times IC50; type: functional, organism-based
# Chain of Cytochrome P450 2C9 (P11712 whole entry): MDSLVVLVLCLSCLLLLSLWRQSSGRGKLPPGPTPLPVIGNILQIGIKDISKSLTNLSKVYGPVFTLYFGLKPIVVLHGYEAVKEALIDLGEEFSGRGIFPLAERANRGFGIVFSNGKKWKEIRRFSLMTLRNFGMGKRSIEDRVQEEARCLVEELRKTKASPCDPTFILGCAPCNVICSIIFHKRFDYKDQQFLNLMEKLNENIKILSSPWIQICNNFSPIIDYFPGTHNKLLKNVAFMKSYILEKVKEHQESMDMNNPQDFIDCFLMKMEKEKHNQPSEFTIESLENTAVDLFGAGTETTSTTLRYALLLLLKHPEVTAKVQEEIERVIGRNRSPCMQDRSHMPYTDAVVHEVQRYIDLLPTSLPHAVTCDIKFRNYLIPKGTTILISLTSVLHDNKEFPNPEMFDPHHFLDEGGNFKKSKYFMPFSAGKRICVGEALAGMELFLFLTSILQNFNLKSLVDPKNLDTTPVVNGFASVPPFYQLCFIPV
# Chain of Cytochrome P450 3A4 (P08684 whole entry): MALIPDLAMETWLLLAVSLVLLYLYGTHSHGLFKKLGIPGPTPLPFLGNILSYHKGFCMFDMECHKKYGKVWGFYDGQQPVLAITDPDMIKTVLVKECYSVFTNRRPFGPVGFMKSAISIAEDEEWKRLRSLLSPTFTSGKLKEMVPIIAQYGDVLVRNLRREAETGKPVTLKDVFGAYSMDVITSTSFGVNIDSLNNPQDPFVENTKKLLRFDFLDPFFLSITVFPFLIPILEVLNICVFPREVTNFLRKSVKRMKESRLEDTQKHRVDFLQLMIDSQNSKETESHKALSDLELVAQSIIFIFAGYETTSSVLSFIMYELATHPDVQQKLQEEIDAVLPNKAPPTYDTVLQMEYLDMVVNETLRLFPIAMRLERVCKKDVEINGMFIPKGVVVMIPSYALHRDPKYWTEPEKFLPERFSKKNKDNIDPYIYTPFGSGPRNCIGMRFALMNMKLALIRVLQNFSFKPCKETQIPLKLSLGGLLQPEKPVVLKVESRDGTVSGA
# Chain of CYP3A4 (P08684 whole entry): as above
# Chain of Cytochrome P450 2D6 (P10635 whole entry): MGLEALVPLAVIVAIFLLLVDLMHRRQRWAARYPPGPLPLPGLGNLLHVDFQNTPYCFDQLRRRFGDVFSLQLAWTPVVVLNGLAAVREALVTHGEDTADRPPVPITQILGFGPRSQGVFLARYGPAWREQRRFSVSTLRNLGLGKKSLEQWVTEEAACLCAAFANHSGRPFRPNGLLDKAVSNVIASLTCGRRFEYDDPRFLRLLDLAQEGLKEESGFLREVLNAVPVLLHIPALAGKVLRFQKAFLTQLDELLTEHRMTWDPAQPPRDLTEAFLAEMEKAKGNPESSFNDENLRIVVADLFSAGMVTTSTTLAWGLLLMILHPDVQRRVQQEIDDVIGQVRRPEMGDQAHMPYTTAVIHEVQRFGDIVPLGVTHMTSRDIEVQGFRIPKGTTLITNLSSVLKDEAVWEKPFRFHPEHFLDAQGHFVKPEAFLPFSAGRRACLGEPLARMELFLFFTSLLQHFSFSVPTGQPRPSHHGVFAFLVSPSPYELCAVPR
# Chain of CYP2D6 (P10635 whole entry): as above
# Chain of CYP2C19 (P33261 whole entry): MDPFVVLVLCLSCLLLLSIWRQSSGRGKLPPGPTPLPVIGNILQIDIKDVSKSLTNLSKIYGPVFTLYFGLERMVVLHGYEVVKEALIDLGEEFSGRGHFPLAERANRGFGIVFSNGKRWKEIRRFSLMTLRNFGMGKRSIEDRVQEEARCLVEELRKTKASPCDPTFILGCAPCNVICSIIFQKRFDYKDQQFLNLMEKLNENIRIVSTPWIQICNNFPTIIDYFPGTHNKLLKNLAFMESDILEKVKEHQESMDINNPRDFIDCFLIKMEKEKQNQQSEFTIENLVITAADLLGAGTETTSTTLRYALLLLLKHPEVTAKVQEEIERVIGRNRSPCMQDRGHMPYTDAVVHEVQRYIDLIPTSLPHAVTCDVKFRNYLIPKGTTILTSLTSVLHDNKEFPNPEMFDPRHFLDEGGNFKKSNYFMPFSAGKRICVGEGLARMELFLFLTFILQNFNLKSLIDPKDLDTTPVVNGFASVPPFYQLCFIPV
compound,measurement,setting,value
CN(C/C=C/C#CC(C)(C)C)Cc1cccc2ccccc12,Activity,Trichophyton rubrum [1],inactive
same,Activity,[2],inactive
CCCCC(NC)C(=O)NCCc1ccc(-c2ccc(Cl)c(Cl)c2)cc1.Cl (racemic),MIC,Cryptococcus neoformans [3],4 µg/mL
same,MIC,Candida albicans [4],8 µg/mL
same,MIC,Nakaseomyces glabratus [5],8 µg/mL
same,MIC,Aspergillus fumigatus,8 µg/mL
same,remaining at 0.5 h,[6],> 85%
same,Stability,[7],Unstable
same,Stability,[8],Unstable
CCCCC(N)C(=O)NCCc1ccc(-c2ccc(Cl)c(Cl)c2)cc1.Cl (racemic),MIC,Cryptococcus neoformans [3],1 µg/mL
same,MIC,Candida albicans [4],2 µg/mL
same,MIC,Nakaseomyces glabratus [5],4 µg/mL
same,MIC,Aspergillus fumigatus,4 µg/mL
same,inhibition at 10 µM,CYP3A4,> 70%
same,inhibition at 10 µM,CYP2C19,> 70%
same,inhibition at 10 µM,CYP2D6,> 70%
same,remaining at 0.5 h,[6],> 85%
CCCC(N)C(=O)NCCc1ccc(OCc2ccc(C(F)(F)F)cc2)cc1.Cl (racemic),inhibition (INH),Cytochrome P450 2C9,> 70%
same,inhibition (INH),Cytochrome P450 3A4,> 70%
same,MIC,Cryptococcus neoformans [3],16 µg/mL
same,MIC,Candida albicans [4],16 µg/mL
same,MIC,Nakaseomyces glabratus [5],32 µg/mL
same,MIC,Aspergillus fumigatus,32 µg/mL
CCCC(NC)C(=O)NCCc1ccc(-c2ccc(C(F)(F)F)cc2)cc1.Cl (racemic),inhibition (INH),Cytochrome P450 2C9,Not Active
same,inhibition (INH),Cytochrome P450 2D6,Active
same,inhibition (INH),Cytochrome P450 3A4,Not Active
same,MIC,Cryptococcus neoformans [3],16 µg/mL
same,MIC,Candida albicans [4],32 µg/mL
same,MIC,Nakaseomyces glabratus [5],32 µg/mL
same,MIC,Aspergillus fumigatus,32 µg/mL
CCCC(NC)C(=O)NCCc1ccc(-c2ccc(Cl)c(Cl)c2)cc1.Cl (racemic),MIC,Cryptococcus neoformans [3],4 µg/mL
same,MIC,Candida albicans [4],16 µg/mL
same,MIC,Nakaseomyces glabratus [5],16 µg/mL
same,MIC,Aspergillus fumigatus,8 µg/mL
same,remaining at 0.5 h,[6],> 85%
same,Stability,[7],Unstable
same,Stability,[8],Unstable
same,Stability,[9],> 95%
same,Stability,[10],> 95%
C[C@@H]1[C@H](O)[C@@H](C)/C=C/C=C/C=C/C=C/C=C/C=C/C=C/[C@H](O[C@@H]2O[C@H](C)[C@@H](O)[C@H](N)[C@@H]2O)C[C@@H]2O[C@](O)(C[C@@H](O)C[C@@H](O)[C@H](O)CC[C@@H](O)C[C@@H](O)CC(=O)O[C@H]1C)C[C@H](O)[C@H]2C(=O)O [AMPHOTERICIN B],MIC,Cryptococcus neoformans [3],0.25 µg/mL
same,MIC,Candida albicans [4],0.25 µg/mL
same,MIC,Nakaseomyces glabratus [5],0.5 µg/mL
same,MIC,Aspergillus fumigatus,1 µg/mL
same,Activity,Cryptococcus neoformans [11],Active
Cc1cc(C2CCCCC2)n(O)c(=O)c1 [CICLOPIROX],Activity,Trichophyton rubrum [1],inactive
same,Activity,[2],inactive
same,Activity,Trichophyton rubrum [12],24.21%
C=C1CCN([C@H](C)[C@](O)(Cn2cncn2)c2ccc(F)cc2F)CC1 [EFINACONAZOLE],Activity,Cryptococcus neoformans [13],inactive
same,Activity,Candida albicans [14],Active
same,IC50,Nakaseomyces glabratus [15],1 µg/mL
same,Activity,Candida albicans [16],Active
same,Activity,Candida albicans [17],Active
same,Activity,Nakaseomyces glabratus [18],Active
same,Activity,Trichophyton rubrum [12],31.9%
OC(Cn1cncn1)(Cn1cncn1)c1ccc(F)cc1F [FLUCONAZOLE],Activity,Cryptococcus neoformans [13],inactive
same,IC50,Candida albicans [19],64 µg/mL
same,IC50,Nakaseomyces glabratus [20],64 µg/mL
same,Activity,Candida albicans [21],Active
same,Activity,Nakaseomyces glabratus [22],Active
